From US10590056B2, “ERR modulators and uses thereof” (CITY OF HOPE, priority 2017, dated 2020)
Entries after “also recorded” stand apart in the source; their conditions may differ.

Key:
human ERRα = molecular target: T1, human ERRα (Homo sapiens, UniProt P11474); assay: GAL4 DBD-ERRα LBD cotransfection luciferase reporter assay in CV-1 cells; type: cell-based; conditions: for IC50: CV-1 cells co-transfected with reporter and expression vectors, human ERRα LBD; for activity on ERRα, in words: cell-based screening; for effect on ERRα transcriptional activity: up to 3 μM
T1 construct: expressed in transfected cells; host or cells: CV-1 cells, cytomegalovirus-driven expression vectors
T1 sequence (P11474 193-421 limits assumed): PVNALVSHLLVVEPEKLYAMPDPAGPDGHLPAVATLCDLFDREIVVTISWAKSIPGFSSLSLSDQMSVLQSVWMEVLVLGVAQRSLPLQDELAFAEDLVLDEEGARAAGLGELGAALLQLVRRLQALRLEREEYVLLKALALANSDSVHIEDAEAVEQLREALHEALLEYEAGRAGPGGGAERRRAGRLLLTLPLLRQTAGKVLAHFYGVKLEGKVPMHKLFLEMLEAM
Experimental: (§1) To assess the functional transcriptional activity of these compounds, cell-based assays using chimeric receptor Gal4 DNA-binding domain (DBD)-NR ligand binding domain cotransfection assay (LBDs of ERRα, ERRγ, and ERRβ) were performed. As an initial screen to determine the ERRγ and ERRβ inhibitory activity and selectivity, all compounds were evaluated for in vitro potency and selectivity by transfection testing, using CV-1 cells transfected with human and mouse ERRs. MH100×4 is a luciferase reporter with four copies of a GAL4 UASG response element, where GAL-I refers to the ligand-binding domain of the indicated receptor fused to the C-terminus of the GAL4 DNA-binding domain. Assays were performed using a Biomek automated workstation in which the genes for the nuclear receptor, as well as a plasmid containing a response element upstream of a luciferase cDNA, are transfected into CV-1 cells. Compounds were evaluated for their ability to inhibit human ERRs at 0.03, 0.1, 0.5, 1, 2.5, 3, and 10 μM test concentrations. […] Z-4-OHT used as a known ERRγ and ERRβ inverse agonist to compare the constitutive activity of unliganded ERRγ and ERRβ.
(§2) Cell culture. CV-1 cells were grown in Dulbecco's modified Eagle's medium supplemented with 10% resin charcoalstripped fetal bovine serum, 50 U/ml penicillin G, and 50 μg/ml streptomycin sulfate (DMEM-FBS) at 37° C. in 5% CO2. One day prior to transfection, cells were plated to 50%-80% confluence using phenol red free DMEM-FBS. The adenoviral construct, Ad-GFP and Ad-ERRα have been described.^55 Propagation of recombinant adenovirus was performed in 293 cells as described.^11
(§3) Cell based transactivation assays were performed in CV-1 cells as described.^49 ERR activity was assayed with a GAL4 reporter construct and fusion proteins containing the ligand binding domains of human ERRα, human ERRβ and mouse ERRγ linked to the DNA binding domain of yeast GAL4. Human ERα and ERβ were examined as full-length proteins using an estrogen receptor responsive reporter construct. Reporter constructs (300 ng/10^5 cells) and cytomegalovirus-driven expression vectors (20-50 ng/10^5 cells) were added as indicated along with CMX-β-gal (500 ng/10^5 cells) as an internal control. Cells were transiently transfected by Lipofectamine as described.^56 Cells were incubated with DNA complexed liposomes for 2 hours and subsequently treated for approximately 45 hr with phenol red free DMEM FBS containing the indicated compounds. After exposure to ligand, the cells were harvested and assayed for luciferase and β-galactosidase activity. […] Fold activation is reported.

mouse ERRγ = molecular target: T2, mouse ERRγ (Mus musculus, UniProt P62509); assay: GAL4 DBD-ERRγ LBD cotransfection luciferase reporter assay in CV-1 cells; type: cell-based; conditions: for IC50: CV-1 cells co-transfected with reporter and expression vectors, mouse ERRγ LBD; for activity on ERRγ, in words: cell-based cotransfection assay, 1g, 1h: at the higher dose; for effect on ERRγ transcriptional activity: up to 3 μM
T2 construct: expressed in transfected cells; host or cells: CV-1 cells, cytomegalovirus-driven expression vectors
T2 sequence (P62509 233-457 limits assumed): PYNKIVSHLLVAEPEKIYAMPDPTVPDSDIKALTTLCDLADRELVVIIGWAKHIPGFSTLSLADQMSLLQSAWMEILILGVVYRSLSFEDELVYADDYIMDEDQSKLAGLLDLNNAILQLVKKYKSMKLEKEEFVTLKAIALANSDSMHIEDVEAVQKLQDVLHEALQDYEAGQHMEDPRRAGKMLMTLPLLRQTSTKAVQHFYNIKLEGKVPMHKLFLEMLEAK
Experimental: as §1, §2, §3

human ERRβ = molecular target: T3, human ERRβ (Homo sapiens, UniProt O95718); assay: GAL4 DBD-ERRβ LBD cotransfection luciferase reporter assay in CV-1 cells; type: cell-based; conditions: for identified as (inverse agonist class / selectivity): ERRα, ERRβ, ERRγ transactivation panel; for activity on ERRβ, in words: cell-based cotransfection assay
T3 construct: expressed in transfected cells; host or cells: CV-1 cells, cytomegalovirus-driven expression vectors
T3 sequence (O95718 208-432 limits assumed): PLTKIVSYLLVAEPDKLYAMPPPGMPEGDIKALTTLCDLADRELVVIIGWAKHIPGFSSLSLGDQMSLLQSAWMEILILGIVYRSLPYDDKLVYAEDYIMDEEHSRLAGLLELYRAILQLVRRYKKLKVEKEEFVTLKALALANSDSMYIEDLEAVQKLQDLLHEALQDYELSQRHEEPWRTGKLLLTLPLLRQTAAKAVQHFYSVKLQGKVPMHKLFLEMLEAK
Experimental: as §1, §2, §3

Human ERβ = molecular target: T4, Human ERβ (Homo sapiens, UniProt Q92731); assay: Full-length ERβ, estrogen receptor responsive reporter assay in CV-1 cells; type: cell-based; conditions: up to 3 μM
T4 construct: Human ERα and ERβ were examined as full-length proteins using an estrogen receptor responsive reporter construct; expressed in transfected cells; host or cells: CV-1 cells, cytomegalovirus-driven expression vectors
Experimental: (§4) Cell based transactivation assays were performed in CV-1 cells as described.^49 ERR activity was assayed with a GAL4 reporter construct and fusion proteins containing the ligand binding domains of human ERRα, human ERRβ and mouse ERRγ linked to the DNA binding domain of yeast GAL4. Human ERα and ERβ were examined as full-length proteins using an estrogen receptor responsive reporter construct. Reporter constructs (300 ng/10^5 cells) and cytomegalovirus-driven expression vectors (20-50 ng/10^5 cells) were added as indicated along with CMX-β-gal (500 ng/10^5 cells) as an internal control. Cells were transiently transfected by Lipofectamine as described.^56 Cells were incubated with DNA complexed liposomes for 2 hours and subsequently treated for approximately 45 hr with phenol red free DMEM FBS containing the indicated compounds. After exposure to ligand, the cells were harvested and assayed for luciferase and β-galactosidase activity. All points were assayed in triplicate and varied by less than 15%. Each experiment was repeated three or more times with similar results. Fold activation is reported.

Human ERα = molecular target: T5, Human ERα (Homo sapiens, UniProt P03372); assay: Full-length ERα, estrogen receptor responsive reporter assay in CV-1 cells; type: cell-based; conditions: up to 3 μM
T5 construct: Human ERα and ERβ were examined as full-length proteins using an estrogen receptor responsive reporter construct; expressed in transfected cells; host or cells: CV-1 cells, cytomegalovirus-driven expression vectors
T5 sequence (P03372 1-595): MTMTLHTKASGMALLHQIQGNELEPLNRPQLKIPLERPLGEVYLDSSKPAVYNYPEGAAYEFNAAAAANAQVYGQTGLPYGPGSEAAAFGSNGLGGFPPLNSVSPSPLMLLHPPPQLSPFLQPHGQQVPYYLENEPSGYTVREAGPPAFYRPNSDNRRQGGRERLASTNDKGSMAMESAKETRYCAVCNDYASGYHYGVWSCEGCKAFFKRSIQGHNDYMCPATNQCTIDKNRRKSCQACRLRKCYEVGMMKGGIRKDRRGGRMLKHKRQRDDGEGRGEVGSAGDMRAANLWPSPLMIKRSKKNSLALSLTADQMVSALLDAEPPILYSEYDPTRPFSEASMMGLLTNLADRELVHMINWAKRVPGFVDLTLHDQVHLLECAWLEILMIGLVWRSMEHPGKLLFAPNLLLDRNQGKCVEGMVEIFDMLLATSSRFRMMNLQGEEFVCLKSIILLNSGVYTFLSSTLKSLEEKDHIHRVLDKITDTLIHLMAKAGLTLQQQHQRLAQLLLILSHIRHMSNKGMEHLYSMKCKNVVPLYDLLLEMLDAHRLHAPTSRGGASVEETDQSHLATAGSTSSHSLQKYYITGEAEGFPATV
Experimental: as §4

ER = conditions: % of the affinity of the Z isomer of 4-OHT; cited from earlier work
[1] = CV-1 cells co-transfected with reporter and expression vectors, human ERRβ LBD

T4 sequence (Q92731 whole entry): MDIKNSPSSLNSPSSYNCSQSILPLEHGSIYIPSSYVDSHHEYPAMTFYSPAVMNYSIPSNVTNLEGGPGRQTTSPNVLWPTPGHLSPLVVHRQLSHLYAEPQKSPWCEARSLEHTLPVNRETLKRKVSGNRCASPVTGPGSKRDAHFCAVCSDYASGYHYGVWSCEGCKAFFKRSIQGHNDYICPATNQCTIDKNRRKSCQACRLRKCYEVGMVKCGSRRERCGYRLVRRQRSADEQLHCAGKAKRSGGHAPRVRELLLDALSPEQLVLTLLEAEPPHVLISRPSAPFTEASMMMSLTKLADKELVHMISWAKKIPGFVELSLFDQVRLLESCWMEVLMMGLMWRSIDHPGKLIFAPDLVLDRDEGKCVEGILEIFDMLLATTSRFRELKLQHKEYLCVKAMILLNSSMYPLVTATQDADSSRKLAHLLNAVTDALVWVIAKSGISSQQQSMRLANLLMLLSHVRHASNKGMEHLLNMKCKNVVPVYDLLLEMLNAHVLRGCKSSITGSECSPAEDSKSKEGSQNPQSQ

| IC50 (human ERRα) [nM] | IC50 (mouse ERRγ) [nM] | IC50 (human ERRβ; [1]) [nM] | identified as (inverse agonist class / selectivity) (human ERRβ) | SMILES | activity on ERRγ, in words (mouse ERRγ) | further results |
| --- | --- | --- | --- | --- | --- | --- |
|  |  |  |  | CCCC(=C(c1ccc(O)cc1)c1ccc(O)cc1)c1ccccc1 [Compound 1b, 1,1-Bis (4-hydroxyphenyl)-2-phenylpent-1-ene] |  | melting point: 192.7 °C |
| > 10000 | 6500 | 600 | selective inverse agonists for the ERRβ | COC(=O)CCC(=C(c1ccc(O)cc1)c1ccc(O)cc1)c1ccccc1 [Compound 1g, 5,5-Bis (4-hydroxyphenyl)-4-phenyl-pent-4-enoic acid methyl ester] | not active | activity on ERRα, in words (human ERRα): not active |
| > 10000 | 5500 | 300 | selective inverse agonists for the ERRβ | COC(=O)C(C)CC(=C(c1ccc(O)cc1)c1ccc(O)cc1)c1ccccc1 (stereo not shown) [Compound 1h, 5,5-Bis (4-hydroxyphenyl)-2-methyl-4-phenyl-pent-4-enoic acid methyl ester] | not active | activity on ERRα, in words (human ERRα): not active |
| > 10000 | 290 | 210 | ERRβ and ERRγ inverse agonists | CC(C)/C(=C(\c1ccc(O)cc1)c1ccc(OCCN(C)C)cc1)c1ccccc1 [Compound 3a, (Z)-4-[1-(4-Dimethylaminoethoxy-phenyl)-3-methyl-2-phenyl-but-1-enyl]-phenol] |  | fold greater potency than Z-4-OHT on ERRγ (mouse ERRγ; compared to Z-4-OHT): 3 fold; fold greater potency than Z-4-OHT on ERRβ (human ERRβ; compared to Z-4-OHT): 3 fold |
| > 10000 | 3500 | 350 |  | COC(=O)CC/C(=C(\c1ccc(O)cc1)c1ccc(OCCN(C)C)cc1)c1ccccc1 [Compound 3g, (Z)-5-[4-(2-Dimethylamino-ethoxy)-phenyl]-5-(4-hydroxyphenyl)-4-phenyl-pent-4-enoic acid methyl ester] |  | effect on ERRα transcriptional activity (human ERRα): no effect; effect on ERRγ transcriptional activity (mouse ERRγ): no effect; effect on ERβ transcriptional activity (Human ERβ): no effect; effect on ERα transcriptional activity (Human ERα): no effect |
| > 10000 | 2500 | 2250 | ERRβ and ERRγ inverse agonists | CC(CO)C/C(=C(\c1ccc(O)cc1)c1ccc(OCCN(C)C)cc1)c1ccccc1 (stereo not shown) [Compound 3n, (Z)-4-{1-[4-(2-Dimethylamino-ethoxy)-phenyl]-5-hydroxy-4-methyl-2-phenyl-pent-1-enyl}-phenol] |  |  |
|  |  |  |  | CC/C(=C(/c1ccc(O)cc1)c1ccc(OCCN(C)C)cc1)c1ccccc1 [Compound E-4-OHT, reference compound] | much less active | activity on ERRβ, in words (human ERRβ): much less active; affinity for the ER relative to the Z isomer (ER): about 5% |

| SMILES | IC50 (human ERRα) [nM] | IC50 (mouse ERRγ) [nM] | IC50 (human ERRβ; [1]) [nM] | identified as (inverse agonist class / selectivity) (human ERRβ) | activity on ERRγ, in words (mouse ERRγ) | further results |
| --- | --- | --- | --- | --- | --- | --- |
| COC(=O)C(C)C/C(=C(\c1ccc(O)cc1)c1ccc(OCCN(C)C)cc1)c1ccccc1 (stereo not shown) [Compound 3h, (Z)-5-[4-(2-Dimethylamino-ethoxy)-phenyl]-5-(4-hydroxyphenyl)-2-methyl-4-phenyl-pent-4-enoic acid methyl ester] | > 10000 | 2780 |  | selective inverse agonist for the ERRβ; also recorded: ERRβ inverse agonists |  | effect on ERRα transcriptional activity (human ERRα): no effect; effect on ERRγ transcriptional activity (mouse ERRγ): no effect; IC50 (human ERRβ; cell-based transactivation in CV-1 cells): 50 nM; effect on ERβ transcriptional activity (Human ERβ): no effect; effect on ERα transcriptional activity (Human ERα): no effect |
| CC/C(=C(\c1ccc(O)cc1)c1ccc(OCCN(C)C)cc1)c1ccccc1 [Compound Z-4-OHT, reference compound] | > 10000 | 600 | 650 |  | has the required activity; also recorded: more potent than E-4-OHT | activity on ERRβ, in words (human ERRβ): has the required activity; also recorded: more potent than E-4-OHT |
